Here are results for three compounds from patent US20090298857A1, “Treatment of Neurodegenerative Diseases Through Inhibition of HSP90” (SLOAN-KETTERING INSTITUTE FOR CANCER RESEARCH, priority 2006, published 2009).

Where two headings read alike, the source gives them in different places.

The conditions of data set [1]: known Hsp90 inhibitors; cited from earlier work.
The subject of data set [2] is p35 in primary neurons, COS-7/p35 and COS-7/p35/Tau cells. The data set can be described thus: p35 degradation and Tau phosphorylation in primary neurons and transfected COS-7 cells. Type of data set: cell-based, rat. Particulars: compared with PU24FC1. The method, then: To further examine the roles played by Hsp90 in tauopathy, we made use of both PU24FC1 and 17-(allyllamino)-17-demethoxygeldanamycin (17AAG) and investigated their effects on both cdk5/p35 and TauP301L in primary neuronal and COS-7 cell cultures. Primary neuronal cultures were derived from the cerebral cortices of embryonic day 17 rat embryos and maintained as described previously (105). To determine the effects of PU24FC1 on protein steady-states and on Tau phosphorylation, PU24FC1 was added at day 6 of culture, and cells were incubated at 37° C. as indicated. […] After incubation, cells were harvested and lysed in 2% SDS, and the resulting samples were analyzed by Western blotting.
Phosphorylation of Tau by cdk5 is initiated through activation by complex formation with one of the neuron-specific proteins p35 or p39. […] In concordance, we assessed the influence of Hsp90 inhibition on p35 cellular expression. A dose- and time-dependent degradation of p35 by PU24FC1 was detected in primary neurons by immunoblot and by immunofluorescence techniques, as well as in COS-7/p35 and COS-7/p35/Tau cells. […]
We detected a dose- and time-dependent degradation of p35 by PU24FC1 in primary neurons, as well as in COS-7/p35 and COS-7/p35/Tau cells. […] Reduction of p35 levels by Hsp90 inhibition affected the activity of the cdk5/p35 complex, as measured using a substrate of cdk5, the histone-H1. […]

Another data set addresses P-glycoprotein (Homo sapiens, UniProt P08183). Particulars: known Hsp90 inhibitor, cited from earlier work.

P-glycoprotein, sequence (P08183 whole entry): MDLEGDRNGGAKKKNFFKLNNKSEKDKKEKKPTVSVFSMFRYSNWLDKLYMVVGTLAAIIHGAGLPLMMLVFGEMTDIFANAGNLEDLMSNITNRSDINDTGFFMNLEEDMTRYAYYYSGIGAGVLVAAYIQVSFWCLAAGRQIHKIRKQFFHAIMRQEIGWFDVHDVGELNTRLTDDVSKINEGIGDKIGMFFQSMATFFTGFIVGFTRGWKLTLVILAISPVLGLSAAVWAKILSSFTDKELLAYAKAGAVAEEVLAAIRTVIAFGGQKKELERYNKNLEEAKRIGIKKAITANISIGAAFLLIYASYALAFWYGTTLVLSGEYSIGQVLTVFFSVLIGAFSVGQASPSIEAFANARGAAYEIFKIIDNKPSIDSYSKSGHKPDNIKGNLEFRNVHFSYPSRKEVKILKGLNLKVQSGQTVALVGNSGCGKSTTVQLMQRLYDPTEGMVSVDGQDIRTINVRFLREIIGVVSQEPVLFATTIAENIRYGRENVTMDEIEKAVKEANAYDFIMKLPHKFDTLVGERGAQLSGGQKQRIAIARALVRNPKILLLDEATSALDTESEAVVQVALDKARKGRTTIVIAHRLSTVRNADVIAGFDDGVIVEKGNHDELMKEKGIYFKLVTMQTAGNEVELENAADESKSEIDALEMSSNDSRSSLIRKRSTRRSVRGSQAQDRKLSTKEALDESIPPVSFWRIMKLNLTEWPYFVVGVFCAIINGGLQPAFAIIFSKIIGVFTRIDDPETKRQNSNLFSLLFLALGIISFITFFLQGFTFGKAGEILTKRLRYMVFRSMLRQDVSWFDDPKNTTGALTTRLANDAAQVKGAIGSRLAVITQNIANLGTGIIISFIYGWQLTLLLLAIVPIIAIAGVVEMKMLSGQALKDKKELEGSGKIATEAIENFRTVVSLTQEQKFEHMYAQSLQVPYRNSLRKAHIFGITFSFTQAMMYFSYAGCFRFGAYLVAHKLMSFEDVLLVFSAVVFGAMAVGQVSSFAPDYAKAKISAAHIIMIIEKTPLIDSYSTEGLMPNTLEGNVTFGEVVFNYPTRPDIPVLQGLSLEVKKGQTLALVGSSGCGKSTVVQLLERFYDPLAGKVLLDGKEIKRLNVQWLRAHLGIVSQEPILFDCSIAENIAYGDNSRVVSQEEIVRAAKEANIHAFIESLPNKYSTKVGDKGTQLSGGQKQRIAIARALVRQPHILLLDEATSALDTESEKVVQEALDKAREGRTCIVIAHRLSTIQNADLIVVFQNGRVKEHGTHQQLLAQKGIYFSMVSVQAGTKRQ

For `C[C@@H]1C[C@H]2O[C@@H]2/C=C\C=C\C(=O)Cc2c(Cl)c(O)cc(O)c2C(=O)O1` [radicicol], the solubility result in data set [1] is recorded as “poorly soluble”.
For `COC1=C2C[C@@H](C)C[C@H](OC)[C@H](O)[C@@H](C)/C=C(\C)[C@H](OC(N)=O)[C@@H](OC)/C=C\C=C(/C)C(=O)NC(=CC1=O)C2=O` [geldanamycin], the solubility entry in data set [1] is “poorly soluble”.
As to `C=CCNC1=C2C[C@@H](C)C[C@H](OC)[C@H](O)[C@@H](C)/C=C(\C)[C@H](OC(N)=O)[C@@H](OC)/C=C\C=C(/C)C(=O)NC(=CC1=O)C2=O` [Compound 17AAG, 17-(allyllamino)-17-demethoxygeldanamycin], the “effects on p35 and mTau” value in data set [2] was “Analogous effects”. In addition, the P-gp substrate entry is “is a P-gp substrate” at P-glycoprotein and “is a P-glycoprotein substrate” on P-glycoprotein (listed as 17-AAG). Moreover, the solubility result in data set [1] is reported as “poorly soluble”.
